Values joined by “and” are separate entries in the source; they are usually repeats but may differ in a detail not shown here. Equal entries are not always repeated.
Columns and labels:
hPDE5 mutants [1] = biological target: T1, hPDE5 mutants (Homo sapiens, UniProt O76074); experiment: GFP MFI by FACS in HCT116 cells transduced with hPDE5 constructs; assay type: cell-based
Protocol: (§1) Desirable qualities of a DD include, low expression of the SRE in the absence of ligand and ligand dependent stabilization of the SRE. Constructs were generated using DDs linked to GFP using an SG linker. […] The mean fluorescence intensity (MFI) of GFP was analyzed by FACS. […] Destabilizing mutation coefficient less than 1 are desirable.
(§2) Mean fluorescence intensity (MFI) was measured by FACS. […] Destabilizing mutation coefficient ratios less than 1 are desirable.
(§3) Mean fluorescence intensity (MFI) was measured by FACS. […] Destabilizing mutation co-efficient ratios less than 1 are desirable.
(§4) Mean fluorescence intensity (MFI) was measured by FACS. […] Destabilizing mutation coefficient less than 1 are desirable.
as §4
(§5) Mean fluorescence intensity (MFI) of GFP was measured by FACS.
(§6) Mean fluorescence intensity (MFI) was measured by FACS.
(§7) The media containing the ligand was removed and fresh media without the ligand was added.
(§8) The properties of the DDs were analyzed in the presence and absence of ligands via FACS as previously described.
(§9) GFP fluorescence was measured by FACS.
(§10) The properties of the DDs were analyzed via FACS both in the presence and absence of ligands.
as §9

hPDE5 mutants [2] = experiment: as above; assay type: cell-based, human
Protocol: as §1, §2, §3, §4, §4, §5, §6, §7, §8, §9, §10, §9

hPDE5 mutants [3] = biological target: T1, hPDE5 mutants; experiment: GFP FACS analysis of hPDE5 mutant library clones in NIH3T3 cell pools; conditions: for Stabilization ratio: GFP intensity 10 μM vardenafil vs DMSO
Protocol: (§11) These constructs were packaged into lentivirus, transduced into NIH3T3 cells and select stable cell pools were derived as described below. […] Lentiviral stocks were used for transduction of NIH3T3 cells and subsequent cell pool selection. The day before transduction, NIH3T3 cells (1.8×10^6) were seeded in a T-25 flask and allowed to reach 60-70% confluency (˜1 day). The growth medium in the T-25 flask was then replaced with 1 mL virus (quickly thawed in a 37° C. water bath) and 5 μg/mL polybrene. […] Transduction medium was removed the following day and replaced with 5 mL fresh medium. At 48 hr after transduction, the medium was replaced with media containing 1 μg/mL puromycin. This puromycin medium was replaced every 3-4 days until cell pools were established (˜2 weeks).
(§12) The mean fluorescence intensity (MFI) of GFP at 100 μM concentration treatment was set as 100% hPDE5 stabilization effect (HPE), while DMSO treatment was set as 0% effect (ZPE) of hPDE5 stabilization. The effect of the compound on hPDE5 stabilization was calculated based on the following formula: % PDE5 stabilization effect=(MFI-ZPE)/(HPE-ZPE)×100.
(§13) Plots of the % effect versus concentration were generated with Graphpad Prism 5 and EC50 values were calculated using a four-parameter nonlinear regression model.
(§14) Select PDE5 clones from both experiment 1 and experiment 2 were directly compared. […] The stabilization ratio was calculated as the fold change in GFP intensity in ligand treated samples compared to treatment with DMSO (i.e. in the absence of ligand) with the same construct.

hPDE5 mutants [4] = experiment: as above
Protocol: as §11, §12, §13, §14

[5] = GFP intensity ligand treated vs DMSO, direct comparison of clones

Sildenafil Stabilization ratio (hPDE5 mutants [1]; 10 μM, 48 h, HCT-116): 1.25
Vardenafil Stabilization ratio (hPDE5 mutants [1]; 10 μM, 48 h, HCT-116): 1.15
MFI Sildenafil (hPDE5 mutants [1]; GFP, 10 μM Sildenafil 48 h, HCT-116): 53736
MFI Vardenafil (hPDE5 mutants [1]; GFP, 10 μM Vardenafil 48 h, HCT-116): 49344
Vardenafil Stabilization ratio (hPDE5 mutants [1]; hotspot constructs, 1 μM Vardenafil): 1.83
Sildenafil Stabilization ratio (hPDE5 mutants [1]; hotspot constructs, 10 μM Sildenafil): 0.22
GFP by FACS, Sildenafil 10 μM (hPDE5 mutants [1]; hotspot constructs, HCT116): 219
GFP by FACS, Vardenafil 1 μM (hPDE5 mutants [1]; hotspot constructs, HCT116): 294
Stabilization ratio (hPDE5 mutants [3]; experiment 1): 1.6 and 1.5 and 1.4
Stabilization ratio (hPDE5 mutants [3]; experiment 2): 1.5
Stabilization ratio Sildenafil (hPDE5 mutants [3]; [5]): 1.05
Stabilization ratio Tadalafil (hPDE5 mutants [3]; [5]): 1.50
Stabilization ratio Vardenafil (hPDE5 mutants [3]; [5]): 1.78
Mean fluorescence intensity (MFI) 10 μM VDF (hPDE5 mutants [3]; GFP, cell pools, 10 μM vardenafil 24 hr, experiment 2): 45616 and 43134
Mean fluorescence intensity (MFI) DMSO (hPDE5 mutants [3]; GFP, cell pools, no ligand (DMSO), experiment 2): 30404 and 29006
Fluorescence intensity Sildenafil (hPDE5 mutants [3]; median GFP fluorescence by FACS, 10 μM Sildenafil, direct comparison of clones): 7082
Fluorescence intensity Tadalafil (hPDE5 mutants [3]; median GFP fluorescence by FACS, 10 μM Tadalafil, direct comparison of clones): 10100
Fluorescence intensity Vardenafil (hPDE5 mutants [3]; median GFP fluorescence by FACS, 10 μM Vardenafil, direct comparison of clones): 12000
Fluorescence intensity DMSO (hPDE5 mutants [3]; median GFP fluorescence by FACS, vehicle DMSO (no ligand), direct comparison of clones): 6732
Substance: OT-001075: hPDE5 wildtype construct, catalytic domain linked to AcGFP, control
MFI DMSO (hPDE5 mutants [2]; GFP, DMSO 48 h, HCT-116): 42973
GFP by FACS, Sildenafil 0 μM (DMSO) (hPDE5 mutants [2]; hotspot constructs, HCT116, DMSO control of Sildenafil): 989
GFP by FACS, Vardenafil 0 μM (DMSO) (hPDE5 mutants [2]; hotspot constructs, HCT116, DMSO control of Vardenafil): 161
GFP FACS analysis (MFI) (hPDE5 mutants [4]; DMSO (no ligand), SDF series, experiment 1): 3140
GFP FACS analysis (MFI) (hPDE5 mutants [4]; DMSO (no ligand), TDF series, experiment 1): 9511
GFP FACS analysis (MFI) (hPDE5 mutants [4]; DMSO (no ligand), VDF series, experiment 1): 7545
GFP FACS analysis (MFI) (hPDE5 mutants [4]; SDF 1.235 μM, experiment 1): 5740
Percent stabilization effect (hPDE5 mutants [4]; SDF 1.235 μM, experiment 1): 66.0%
GFP FACS analysis (MFI) (hPDE5 mutants [4]; SDF 3.704 μM, experiment 1): 6480
Percent stabilization effect (hPDE5 mutants [4]; SDF 3.704 μM, experiment 1): 84.7%
GFP FACS analysis (MFI) (hPDE5 mutants [4]; SDF 11.111 μM, experiment 1): 6848
Percent stabilization effect (hPDE5 mutants [4]; SDF 11.111 μM, experiment 1): 94.1%
Percent stabilization effect (hPDE5 mutants [4]; SDF 11.111 μM, experiment 2): 49.7% and 88.2%
GFP FACS analysis (MFI) (hPDE5 mutants [4]; SDF 33.333 μM, experiment 1): 7025
Percent stabilization effect (hPDE5 mutants [4]; SDF 33.333 μM, experiment 1): 98.6%
Percent stabilization effect (hPDE5 mutants [4]; SDF 33.333 μM, experiment 2): 79.3% and 96.0%
Percent stabilization effect (hPDE5 mutants [4]; SDF 100 μM (set as 100%), experiment 1): 100.0%
Percent stabilization effect (hPDE5 mutants [4]; SDF 100 μM (set as 100%), experiment 2): 100.0%
GFP FACS analysis (MFI) (hPDE5 mutants [4]; SDF 100 μM, experiment 1): 7082
GFP FACS analysis (MFI) (hPDE5 mutants [4]; SDF 100 μM, experiment 2): 39638 and 65696
GFP FACS analysis (MFI) (hPDE5 mutants [4]; TDF 1.235 μM, experiment 1): 6211
Percent stabilization effect (hPDE5 mutants [4]; TDF 1.235 μM, experiment 1): −560.3%
GFP FACS analysis (MFI) (hPDE5 mutants [4]; TDF 3.704 μM, experiment 1): 7039
Percent stabilization effect (hPDE5 mutants [4]; TDF 3.704 μM, experiment 1): −419.7%
GFP FACS analysis (MFI) (hPDE5 mutants [4]; TDF 11.111 μM, experiment 1): 7388
Percent stabilization effect (hPDE5 mutants [4]; TDF 11.111 μM, experiment 1): −360.4%
GFP FACS analysis (MFI) (hPDE5 mutants [4]; TDF 11.111 μM, experiment 2): 89646 and 143351
Percent stabilization effect (hPDE5 mutants [4]; TDF 11.111 μM, experiment 2): 101.2% and 136.4%
GFP FACS analysis (MFI) (hPDE5 mutants [4]; TDF 33.333 μM, experiment 1): 7688
Percent stabilization effect (hPDE5 mutants [4]; TDF 33.333 μM, experiment 1): −309.5%
GFP FACS analysis (MFI) (hPDE5 mutants [4]; TDF 33.333 μM, experiment 2): 97813 and 136420
Percent stabilization effect (hPDE5 mutants [4]; TDF 33.333 μM, experiment 2): 110.9% and 123.3%
Percent stabilization effect (hPDE5 mutants [4]; TDF 100 μM (set as 100%), experiment 1): 100.0%
Percent stabilization effect (hPDE5 mutants [4]; TDF 100 μM (set as 100%), experiment 2): 100.0%
GFP FACS analysis (MFI) (hPDE5 mutants [4]; TDF 100 μM, experiment 1): 10100
GFP FACS analysis (MFI) (hPDE5 mutants [4]; TDF 100 μM, experiment 2): 88657 and 124011
GFP FACS analysis (MFI) (hPDE5 mutants [4]; VDF 1.235 μM, experiment 1): 7393
Percent stabilization effect (hPDE5 mutants [4]; VDF 1.235 μM, experiment 1): −3.4%
GFP FACS analysis (MFI) (hPDE5 mutants [4]; VDF 1.235 μM, experiment 2): 32753 and 47543
Percent stabilization effect (hPDE5 mutants [4]; VDF 1.235 μM, experiment 2): 46.3% and 46.8%
GFP FACS analysis (MFI) (hPDE5 mutants [4]; VDF 3.704 μM, experiment 1): 7592
Percent stabilization effect (hPDE5 mutants [4]; VDF 3.704 μM, experiment 1): 1.1%
GFP FACS analysis (MFI) (hPDE5 mutants [4]; VDF 3.704 μM, experiment 2): 36347 and 49859
Percent stabilization effect (hPDE5 mutants [4]; VDF 3.704 μM, experiment 2): 52.0% and 52.6%
GFP FACS analysis (MFI) (hPDE5 mutants [4]; VDF 11.111 μM, experiment 1): 7964
Percent stabilization effect (hPDE5 mutants [4]; VDF 11.111 μM, experiment 1): 9.4%
GFP FACS analysis (MFI) (hPDE5 mutants [4]; VDF 11.111 μM, experiment 2): 39279 and 50082
Percent stabilization effect (hPDE5 mutants [4]; VDF 11.111 μM, experiment 2): 56.6% and 53.2%
GFP FACS analysis (MFI) (hPDE5 mutants [4]; VDF 33.333 μM, experiment 1): 8854
Percent stabilization effect (hPDE5 mutants [4]; VDF 33.333 μM, experiment 1): 29.4%
GFP FACS analysis (MFI) (hPDE5 mutants [4]; VDF 33.333 μM, experiment 2): 44931 and 53578
Percent stabilization effect (hPDE5 mutants [4]; VDF 33.333 μM, experiment 2): 65.5% and 62.0%
Percent stabilization effect (hPDE5 mutants [4]; VDF 100 μM (set as 100%), experiment 1): 100.0%
Percent stabilization effect (hPDE5 mutants [4]; VDF 100 μM (set as 100%), experiment 2): 100.0%
GFP FACS analysis (MFI) (hPDE5 mutants [4]; VDF 100 μM, experiment 1): 12000
GFP FACS analysis (MFI) (hPDE5 mutants [4]; VDF 100 μM, experiment 2): 66821 and 68646
Fold increase in MFI (hPDE5 mutants [4]; after treatment with sildenafil or vardenafil, NIH3T3): ~1.5 fold
